These results are taken from US20250136702A1, “HUMAN LIFR ANTIGEN BINDING PROTEIN, PREPARATION METHOD THEREFOR, AND APPLICATION THEREOF” (NONA BIOSCIENCES (SUZHOU) CO., LTD., priority 2020, published 2025).

The test system of this assay is Human pancreatic cancer Capan-2 cells. Kind of assay: Pharmacodynamics in Capan-2 tumor mouse model. In kind it is in vivo, Balb/c nude mice. Particulars: Capan-2 model, TIW × 9 doses. Here is the method:
In this experiment, Capan-2 tumor mouse model was used to study the anti-tumor activity of anti-human LIFR antibody. The pharmacodynamics of PR300516 antibody administered alone (5 mg/kg and 15 mg/kg) in Capan-2 mouse model were studied. Human pancreatic cancer Capan-2 cells (ATCC cell bank) were subcutaneously inoculated into female Balb/c nude mice (charles river). The treatment method of the antibody group is: on the 5th day, the 9th day, the 12th day, the 16th day, the 19th day and the 23rd day after the tumor cell inoculation, the mice of each group are injected with the corresponding antibodies in the intraperitoneal cavity. The treatment method of the small molecule inhibitor group is: EC359 small molecule inhibitors were administered orally to mice on days 5, 7, 9, 12, 14, 16, 19, 21 and 23 after tumor cell inoculation. The tumor volume was measured on the 5th, 9th, 12th, 16th, 19th and 23rd days after tumor cell inoculation, and then the mice were euthanized.

For `C#CC(F)(F)[C@]1(O)CC[C@H]2[C@@H]3CCC4=CC(=O)CCC4=C3[C@@H](c3ccc(-c4c(C)cc(C)cc4C)cc3)C[C@@]21C` [EC359, reference compound], the “TGI (%)” value by setting is: (5 mg/kg oral) 40.99%; (15 mg/kg oral) 47.85%.
